# Assay results reported in the supplement of paper PMC12463676, “Small-molecule dissolution of stress granules by redox modulation benefits ALS models” (Nature Chemical Biology, 2025).
# Tests used:
# potassium arsenate = compound: O=[As]([O-])(O)O.[K+] [potassium arsenate]; assay: thermal stability z-score vs DMSO; higher = more thermally stabilized by treatment; details: HeLa; arsenate concentration 1 mM
# Experimental: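 Cellular thermal proteome profiling in HeLa cells treated with 1 mM arsenate for 1 h (DMSO pretreatment), heated to ten temperatures (37-66.3 °C). Soluble protein was quantified by TMT mass spectrometry relative to DMSO controls; the thermal stability score was transformed to a z-score; mean of n = 3 experiments.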
# lipoamide = compound: NC(=O)CCCCC1CCSS1 [lipoamide]; assay: as above; details: HeLa, lipoamide concentration 100 µM
# Experimental: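 Cellular thermal proteome profiling in HeLa cells. Cells were treated with 100 µM lipoamide for 1 h, with or without 1 mM arsenate for a further 1 h, then heated to ten temperatures (37-66.3 °C), and soluble protein was quantified by TMT mass spectrometry relative to 0.1% DMSO controls. The thermal stability score (sum of log2 fold changes minus the abundance score) was transformed to a z-score; mean of n = 3 experiments.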
# [1] = arsenate co-treatment: 1 mM arsenate 1 h
# 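Further: each temperature applied for 3 min, abundance score taken as mean log2 fold change at the two lowest temperatures, z-score obtained by mean subtraction and division by SD.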
# UniProt O60830, sequence (O60830 whole entry): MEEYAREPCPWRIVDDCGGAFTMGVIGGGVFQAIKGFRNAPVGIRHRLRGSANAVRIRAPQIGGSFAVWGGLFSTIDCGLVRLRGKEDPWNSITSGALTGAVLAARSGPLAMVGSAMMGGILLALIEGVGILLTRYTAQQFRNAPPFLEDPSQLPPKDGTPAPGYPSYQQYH
# UniProt Q9NX62, sequence (Q9NX62 whole entry): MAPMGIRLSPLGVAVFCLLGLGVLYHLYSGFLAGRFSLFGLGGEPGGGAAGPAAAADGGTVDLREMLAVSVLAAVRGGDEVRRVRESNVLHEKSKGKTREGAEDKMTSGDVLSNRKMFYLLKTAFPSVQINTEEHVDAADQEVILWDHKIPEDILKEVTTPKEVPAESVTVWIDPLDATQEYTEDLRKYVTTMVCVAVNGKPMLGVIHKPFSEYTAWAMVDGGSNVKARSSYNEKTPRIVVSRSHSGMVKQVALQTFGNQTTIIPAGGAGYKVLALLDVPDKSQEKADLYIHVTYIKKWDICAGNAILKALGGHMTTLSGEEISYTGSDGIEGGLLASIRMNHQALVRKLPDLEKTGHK
# UniProt O14772, sequence (O14772 whole entry): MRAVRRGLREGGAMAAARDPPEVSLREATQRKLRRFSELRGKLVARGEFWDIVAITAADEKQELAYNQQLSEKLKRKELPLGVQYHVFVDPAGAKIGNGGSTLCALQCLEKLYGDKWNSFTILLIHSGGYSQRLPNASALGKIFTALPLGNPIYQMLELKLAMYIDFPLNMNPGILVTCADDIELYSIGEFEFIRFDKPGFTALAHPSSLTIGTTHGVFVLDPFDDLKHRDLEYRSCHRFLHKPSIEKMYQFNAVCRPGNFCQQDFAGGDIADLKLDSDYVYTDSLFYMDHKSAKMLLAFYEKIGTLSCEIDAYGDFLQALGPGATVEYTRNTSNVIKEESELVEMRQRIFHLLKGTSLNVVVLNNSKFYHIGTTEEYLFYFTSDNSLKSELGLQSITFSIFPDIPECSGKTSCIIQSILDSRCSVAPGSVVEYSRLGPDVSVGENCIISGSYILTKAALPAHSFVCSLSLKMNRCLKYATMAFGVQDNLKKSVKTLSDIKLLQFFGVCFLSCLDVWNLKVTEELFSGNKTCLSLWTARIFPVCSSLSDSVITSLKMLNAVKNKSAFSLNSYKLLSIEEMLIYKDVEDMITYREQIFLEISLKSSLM
# UniProt Q8N8A2, sequence (Q8N8A2 whole entry): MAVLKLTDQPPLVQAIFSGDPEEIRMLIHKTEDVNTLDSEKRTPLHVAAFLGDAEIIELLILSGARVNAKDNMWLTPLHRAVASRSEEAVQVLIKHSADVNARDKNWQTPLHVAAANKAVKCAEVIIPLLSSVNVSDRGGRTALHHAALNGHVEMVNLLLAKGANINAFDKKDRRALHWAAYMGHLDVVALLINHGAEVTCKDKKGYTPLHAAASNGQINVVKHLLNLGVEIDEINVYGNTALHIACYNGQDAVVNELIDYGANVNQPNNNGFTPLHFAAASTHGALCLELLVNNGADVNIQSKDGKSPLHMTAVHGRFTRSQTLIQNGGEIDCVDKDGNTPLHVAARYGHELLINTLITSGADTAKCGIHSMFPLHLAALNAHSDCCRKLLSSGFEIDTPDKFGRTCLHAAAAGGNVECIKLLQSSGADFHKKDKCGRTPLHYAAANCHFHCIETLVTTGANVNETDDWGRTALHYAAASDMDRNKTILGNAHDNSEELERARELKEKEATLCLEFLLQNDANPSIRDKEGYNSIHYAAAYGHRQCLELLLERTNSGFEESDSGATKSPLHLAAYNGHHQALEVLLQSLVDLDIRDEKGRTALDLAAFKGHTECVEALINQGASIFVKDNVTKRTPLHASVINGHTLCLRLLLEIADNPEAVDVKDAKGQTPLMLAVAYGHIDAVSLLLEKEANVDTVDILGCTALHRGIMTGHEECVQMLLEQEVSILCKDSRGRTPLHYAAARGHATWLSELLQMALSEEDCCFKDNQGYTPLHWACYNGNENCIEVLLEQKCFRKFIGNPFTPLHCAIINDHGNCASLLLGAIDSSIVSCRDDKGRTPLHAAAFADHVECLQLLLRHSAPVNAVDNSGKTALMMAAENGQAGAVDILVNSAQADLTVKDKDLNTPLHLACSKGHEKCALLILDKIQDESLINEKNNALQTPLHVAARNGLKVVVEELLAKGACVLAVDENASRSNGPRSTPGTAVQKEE
# UniProt Q99755, sequence (Q99755 whole entry): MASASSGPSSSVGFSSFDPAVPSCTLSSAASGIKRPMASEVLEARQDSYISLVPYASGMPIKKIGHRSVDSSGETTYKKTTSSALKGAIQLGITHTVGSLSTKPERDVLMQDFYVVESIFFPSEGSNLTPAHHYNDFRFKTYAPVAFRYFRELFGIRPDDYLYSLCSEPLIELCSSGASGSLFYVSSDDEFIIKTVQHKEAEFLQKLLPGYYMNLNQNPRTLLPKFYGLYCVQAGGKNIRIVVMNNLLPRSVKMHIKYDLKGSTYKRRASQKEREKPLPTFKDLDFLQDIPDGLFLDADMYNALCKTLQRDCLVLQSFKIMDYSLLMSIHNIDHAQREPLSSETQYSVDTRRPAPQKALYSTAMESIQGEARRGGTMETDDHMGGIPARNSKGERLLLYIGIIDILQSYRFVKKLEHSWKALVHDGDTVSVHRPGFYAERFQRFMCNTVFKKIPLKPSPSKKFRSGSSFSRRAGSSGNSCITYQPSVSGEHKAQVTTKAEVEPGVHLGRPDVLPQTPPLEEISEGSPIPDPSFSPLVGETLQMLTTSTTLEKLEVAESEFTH
# UniProt Q9H0X4, sequence (Q9H0X4 whole entry): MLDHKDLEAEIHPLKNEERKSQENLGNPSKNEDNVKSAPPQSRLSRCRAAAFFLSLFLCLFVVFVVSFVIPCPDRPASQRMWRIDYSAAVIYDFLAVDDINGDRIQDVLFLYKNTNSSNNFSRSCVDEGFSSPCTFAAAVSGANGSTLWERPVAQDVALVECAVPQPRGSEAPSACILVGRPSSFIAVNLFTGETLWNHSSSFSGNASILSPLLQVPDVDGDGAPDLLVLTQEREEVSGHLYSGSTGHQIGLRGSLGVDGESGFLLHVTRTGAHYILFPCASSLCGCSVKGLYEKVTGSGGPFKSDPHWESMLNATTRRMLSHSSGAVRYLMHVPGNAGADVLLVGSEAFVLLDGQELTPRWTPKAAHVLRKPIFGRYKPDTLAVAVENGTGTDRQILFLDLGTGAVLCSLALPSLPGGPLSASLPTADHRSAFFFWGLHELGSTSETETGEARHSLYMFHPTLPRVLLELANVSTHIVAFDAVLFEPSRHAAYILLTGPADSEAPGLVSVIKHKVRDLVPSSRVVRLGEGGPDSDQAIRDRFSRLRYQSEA
# UniProt Q8NBI6, sequence (Q8NBI6 whole entry): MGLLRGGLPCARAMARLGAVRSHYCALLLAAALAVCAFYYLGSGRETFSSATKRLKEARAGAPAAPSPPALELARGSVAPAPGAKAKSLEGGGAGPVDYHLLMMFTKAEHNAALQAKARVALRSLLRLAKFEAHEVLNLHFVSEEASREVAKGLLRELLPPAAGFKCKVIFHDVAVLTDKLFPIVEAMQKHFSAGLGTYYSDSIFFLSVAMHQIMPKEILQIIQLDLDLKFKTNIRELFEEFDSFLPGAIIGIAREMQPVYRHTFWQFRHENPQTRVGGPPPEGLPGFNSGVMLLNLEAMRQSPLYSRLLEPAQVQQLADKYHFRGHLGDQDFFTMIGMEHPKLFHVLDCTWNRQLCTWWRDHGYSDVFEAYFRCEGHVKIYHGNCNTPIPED
# UniProt P11169, sequence (P11169 whole entry): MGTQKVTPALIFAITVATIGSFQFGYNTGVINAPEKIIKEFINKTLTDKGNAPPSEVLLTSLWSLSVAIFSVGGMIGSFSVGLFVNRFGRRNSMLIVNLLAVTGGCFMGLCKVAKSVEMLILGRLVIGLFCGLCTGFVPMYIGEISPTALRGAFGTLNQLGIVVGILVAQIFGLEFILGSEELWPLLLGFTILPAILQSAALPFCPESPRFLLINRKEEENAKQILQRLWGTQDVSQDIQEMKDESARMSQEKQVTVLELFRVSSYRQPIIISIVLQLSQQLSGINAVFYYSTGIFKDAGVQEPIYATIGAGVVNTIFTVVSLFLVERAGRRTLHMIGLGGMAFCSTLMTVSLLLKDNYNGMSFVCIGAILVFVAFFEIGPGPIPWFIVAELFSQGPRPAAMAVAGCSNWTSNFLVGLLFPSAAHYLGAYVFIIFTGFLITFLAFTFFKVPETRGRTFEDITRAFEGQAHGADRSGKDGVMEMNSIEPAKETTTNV
# UniProt P51648, sequence (P51648 whole entry): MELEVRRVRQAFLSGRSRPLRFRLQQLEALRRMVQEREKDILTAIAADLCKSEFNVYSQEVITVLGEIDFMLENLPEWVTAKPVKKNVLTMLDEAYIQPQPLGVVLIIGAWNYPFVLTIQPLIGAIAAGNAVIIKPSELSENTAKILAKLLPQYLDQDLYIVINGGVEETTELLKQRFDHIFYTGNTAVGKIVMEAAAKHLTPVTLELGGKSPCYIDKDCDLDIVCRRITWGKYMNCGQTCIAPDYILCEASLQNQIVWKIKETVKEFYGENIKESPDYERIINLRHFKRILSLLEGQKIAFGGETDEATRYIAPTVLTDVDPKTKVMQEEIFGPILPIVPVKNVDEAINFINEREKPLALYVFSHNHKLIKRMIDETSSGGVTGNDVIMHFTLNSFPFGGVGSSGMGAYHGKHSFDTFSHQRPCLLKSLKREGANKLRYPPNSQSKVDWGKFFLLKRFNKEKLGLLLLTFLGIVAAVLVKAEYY
# UniProt O60828, sequence (O60828 whole entry): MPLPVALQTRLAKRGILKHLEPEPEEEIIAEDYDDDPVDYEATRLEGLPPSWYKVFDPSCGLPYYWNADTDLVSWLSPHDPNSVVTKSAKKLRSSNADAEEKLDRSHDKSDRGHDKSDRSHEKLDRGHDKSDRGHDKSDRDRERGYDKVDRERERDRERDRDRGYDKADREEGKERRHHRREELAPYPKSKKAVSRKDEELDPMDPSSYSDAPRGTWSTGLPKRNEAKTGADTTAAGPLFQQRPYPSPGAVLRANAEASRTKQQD
Target,thermal stability z-score (potassium arsenate),thermal stability z-score (lipoamide; [1]),thermal stability z-score (lipoamide; arsenate co-treatment: none)
GTF2F1 (UniProt P35269),-0.307,-0.208,-0.0526
RPS20 (UniProt P60866),-0.0402,1.14,1.14
RAB32 (UniProt Q13637),0.411,-0.0545,-0.0863
FAM234A (UniProt Q9H0X4),-0.743,-0.353,-0.499
PQBP1 (UniProt O60828),-0.0247,0.533,-0.261
PEX16 (UniProt Q9Y5Y5),-0.441,-1.58,-0.719
PPM1L (UniProt Q5SGD2),-0.192,-0.022,-0.095
COQ5 (UniProt Q5HYK3),1.52,0.471,0.639
CDC37L1 (UniProt Q7L3B6),0.23,-0.275,-0.0638
SEC61A1 (UniProt P61619),0.55,1.11,0.235
TIMM17B (UniProt O60830),0.173,0.0946,-0.362
TFCP2 (UniProt Q12800),0.147,0.151,0.69
XXYLT1 (UniProt Q8NBI6),0.948,-0.751,-2.13
STT3B (UniProt Q8TCJ2),0.646,-3.41,-2.66
PTPRF (UniProt P10586),-0.656,-0.381,-0.381
RTN4 (UniProt Q9NQC3),0.413,0.244,0.711
LMAN2 (UniProt Q12907),0.284,-1.93,-1.77
RBBP7 (UniProt Q16576),-0.595,0.794,0.539
INADL (UniProt Q8NI35),-0.0383,-0.13,-0.0923
KIAA2013 (UniProt Q8IYS2),-1.04,1.03,1.5
GPN3 (UniProt Q9UHW5),-0.524,-0.0577,-0.282
ARRB2 (UniProt P32121),0.28,-0.153,-1.1
KIF21A (UniProt Q7Z4S6),0.269,-0.586,-0.117
SHOC2 (UniProt Q9UQ13),-0.00952,0.22,-0.229

Target,thermal stability z-score (potassium arsenate),thermal stability z-score (lipoamide; [1]),thermal stability z-score (lipoamide; arsenate co-treatment: none)
PIP5K1A (UniProt Q99755),0.951,-0.948,-0.813
SLC2A3 (UniProt P11169),-0.293,0.481,0.126
LSM4 (UniProt Q9Y4Z0),0.216,0.426,0.265
FPGT (UniProt O14772),0.0182,-0.111,0.182
GPR107 (UniProt Q5VW38),0.169,-0.0315,0.243
CTPS2 (UniProt Q9NRF8),0.109,0.218,-0.0335
ARMT1 (UniProt Q9H993),0.195,0.0878,0.255
NOC4L (UniProt Q9BVI4),0.214,0.134,0.00403
POLR2A (UniProt P24928),-0.684,0.89,0.82
SMS (UniProt P52788),4.34,0.652,0.823
MAP2K2 (UniProt P36507),0.0169,-0.441,-0.022
YTHDF1 (UniProt Q9BYJ9),-0.193,0.00152,-0.0393
ARHGEF16 (UniProt Q5VV41),-0.201,0.251,-0.0771
KDM3A (UniProt Q9Y4C1),-0.0481,0.00835,-0.0932
RB1CC1 (UniProt Q8TDY2),0.893,-0.502,-0.143
UTP18 (UniProt Q9Y5J1),0.516,0.058,-0.244
MYADM (UniProt Q96S97),1.34,0.0599,0.353
ALDH3A2 (UniProt P51648),0.0815,1.63,1.32
LAMTOR2 (UniProt Q9Y2Q5),0.135,0.266,0.19
SAFB (UniProt Q15424),0.0324,2.61,0.651
SLBP (UniProt Q14493),-1.06,-0.736,0.179
VPS13D (UniProt Q5THJ4),-0.13,0.236,0.0716
VLDLR (UniProt P98155),-0.86,-0.517,-0.526
SLC25A5 (UniProt P05141),0.562,0.657,0.589

Target,thermal stability z-score (potassium arsenate),thermal stability z-score (lipoamide; [1]),thermal stability z-score (lipoamide; arsenate co-treatment: none)
HELB (UniProt Q8NG08),-0.671,-0.468,-0.74
HEXA (UniProt P06865),-0.0764,-0.146,-0.412
ANKRD44 (UniProt Q8N8A2),-0.0202,-0.00602,-0.323
NIFK (UniProt Q9BYG3),-1.78,1.5,0.467
C16ORF13 (UniProt Q96S19),0.536,0.306,0.154
DNAJB2 (UniProt P25686),0.142,0.422,0.0161
PJA2 (UniProt O43164),-3.43,-0.202,-0.163
WRNIP1 (UniProt Q96S55),0.0587,-0.272,-0.113
SPATS2L (UniProt Q9NUQ6),-0.0325,0.296,0.638
REEP3 (UniProt Q6NUK4),-0.0274,0.197,-0.171
AAK1 (UniProt Q2M2I8),0.0056,0.286,0.0193
TTC19 (UniProt Q6DKK2),-1.29,0.927,0.897
CRK (UniProt P46108),1.2,0.951,0.233
IMPAD1 (UniProt Q9NX62),-0.352,-0.426,-0.356
BOD1L1 (UniProt Q8NFC6),-0.589,0.583,0.352
YWHAB (UniProt P31946),0.281,0.364,0.584
FGD4 (UniProt Q96M96),-0.203,0.0849,-0.0145
SNX3 (UniProt O60493),0.0169,-0.62,-0.231
STAU1 (UniProt O95793),-0.275,-1.06,-0.199
UXT (UniProt Q9UBK9),0.352,0.497,0.378
CPSF6 (UniProt Q16630),0.452,0.848,1.21
LAMB1 (UniProt P07942),0.724,-3.22,-2.66
NUDCD3 (UniProt Q8IVD9),0.339,-0.592,-0.183
